Reference: the NIST ThermoML archive (doi:10.1021/je200073x)

Experiments:
[1] = molar heat capacity at constant pressure; conditions: 101.33 kPa, Liquid, Small sample (50 mg) DSC
[2] = 101.33 kPa, Liquid; for viscosity: Concentric cylinders viscometry; for electrical conductivity: Metler Toledo SevenEasy conductivity meter; for mass density: Vibrating tube method

CCCCCC[n+]1ccn(C)c1.FC(F)(F)C(F)(F)[P-](F)(F)(F)(C(F)(F)C(F)(F)F)C(F)(F)C(F)(F)F
Conditions	electrical conductivity [S/m]	mass density [kg/m3]	molar heat capacity at constant pressure [J/K/mol]	viscosity [mPa·s]
[1], 293.15 K	–	–	725.56	–
[1], 294.15 K	–	–	726.17	–
[1], 295.15 K	–	–	726.78	–
[1], 296.15 K	–	–	728.01	–
[1], 297.15 K	–	–	728.62	–
[1], 298.15 K	–	–	729.85	–
[1], 299.15 K	–	–	730.46	–
[1], 300.15 K	–	–	731.68	–
[1], 301.15 K	–	–	732.29	–
[1], 302.15 K	–	–	733.52	–
[1], 303.15 K	–	–	734.13	–
[1], 304.15 K	–	–	735.36	–
[1], 305.15 K	–	–	735.97	–
[1], 306.15 K	–	–	737.19	–
[1], 307.15 K	–	–	737.81	–
[1], 308.15 K	–	–	738.42	–
[1], 309.15 K	–	–	739.64	–
[1], 310.15 K	–	–	740.25	–
[1], 311.15 K	–	–	741.48	–
[1], 312.15 K	–	–	742.09	–
[1], 313.15 K	–	–	743.32	–
[1], 314.15 K	–	–	743.93	–
[1], 315.15 K	–	–	745.15	–
[1], 316.15 K	–	–	745.77	–
[1], 317.15 K	–	–	746.99	–
[1], 318.15 K	–	–	747.6	–
[1], 319.15 K	–	–	748.83	–
[1], 320.15 K	–	–	749.44	–
[1], 321.15 K	–	–	750.05	–
[1], 322.15 K	–	–	751.28	–
[1], 323.15 K	–	–	751.89	–
[1], 324.15 K	–	–	752.5	–
[1], 325.15 K	–	–	753.11	–
[1], 326.15 K	–	–	754.34	–
[1], 327.15 K	–	–	754.95	–
[1], 328.15 K	–	–	756.17	–
[1], 329.15 K	–	–	756.79	–
[1], 330.15 K	–	–	758.01	–
[1], 331.15 K	–	–	758.62	–
[1], 332.15 K	–	–	759.24	–
[1], 333.15 K	–	–	759.85	–
[1], 334.15 K	–	–	760.46	–
[1], 335.15 K	–	–	761.07	–
[1], 336.15 K	–	–	762.3	–
[1], 337.15 K	–	–	762.91	–
[1], 338.15 K	–	–	763.52	–
[1], 339.15 K	–	–	764.75	–
[1], 340.15 K	–	–	765.36	–
[1], 341.15 K	–	–	765.97	–
[1], 342.15 K	–	–	767.2	–
[1], 343.15 K	–	–	767.81	–
[2], 293.15 K	0.1303	1555.6	–	114.3
[2], 298.15 K	0.167	1550.1	–	88.2
[2], 303.15 K	0.209	1544.7	–	68.4
[2], 308.15 K	0.258	1539.3	–	54.1
[2], 313.15 K	0.313	1533.9	–	43.2
[2], 318.15 K	0.374	1528.7	–	35.1
[2], 323.15 K	0.44	1523.5	–	28.9
[2], 328.15 K	0.514	1518	–	24.4
[2], 333.15 K	0.593	1512.6	–	20.3
[2], 338.15 K	0.676	1507.2	–	17.3
[2], 343.15 K	0.769	1501.8	–	14.8

CCCCCCn1cc[n+](C)c1.F[P-](F)(F)(F)(F)F [1-hexyl-3-methylimidazolium hexafluorophosphate]
Conditions	electrical conductivity [S/m]	mass density [kg/m3]	molar heat capacity at constant pressure [J/K/mol]	viscosity [mPa·s]
[1], 293.15 K	–	–	421.53	–
[1], 294.15 K	–	–	422.15	–
[1], 295.15 K	–	–	422.78	–
[1], 296.15 K	–	–	423.09	–
[1], 297.15 K	–	–	423.4	–
[1], 298.15 K	–	–	424.02	–
[1], 299.15 K	–	–	424.34	–
[1], 300.15 K	–	–	424.96	–
[1], 301.15 K	–	–	425.27	–
[1], 302.15 K	–	–	426.21	–
[1], 303.15 K	–	–	426.83	–
[1], 304.15 K	–	–	427.15	–
[1], 305.15 K	–	–	427.46	–
[1], 306.15 K	–	–	428.08	–
[1], 307.15 K	–	–	428.71	–
[1], 308.15 K	–	–	429.33	–
[1], 309.15 K	–	–	429.96	–
[1], 310.15 K	–	–	430.58	–
[1], 311.15 K	–	–	431.21	–
[1], 312.15 K	–	–	431.52	–
[1], 313.15 K	–	–	432.14	–
[1], 314.15 K	–	–	432.77	–
[1], 315.15 K	–	–	433.39	–
[1], 316.15 K	–	–	434.02	–
[1], 317.15 K	–	–	434.64	–
[1], 318.15 K	–	–	434.95	–
[1], 319.15 K	–	–	435.58	–
[1], 320.15 K	–	–	436.2	–
[1], 321.15 K	–	–	436.83	–
[1], 322.15 K	–	–	437.45	–
[1], 323.15 K	–	–	437.76	–
[1], 324.15 K	–	–	438.7	–
[1], 325.15 K	–	–	439.32	–
[1], 326.15 K	–	–	439.95	–
[1], 327.15 K	–	–	440.89	–
[1], 328.15 K	–	–	441.82	–
[1], 329.15 K	–	–	442.45	–
[1], 330.15 K	–	–	443.07	–
[1], 331.15 K	–	–	444.01	–
[1], 332.15 K	–	–	444.63	–
[1], 333.15 K	–	–	445.26	–
[1], 334.15 K	–	–	445.88	–
[1], 335.15 K	–	–	446.51	–
[1], 336.15 K	–	–	447.44	–
[1], 337.15 K	–	–	448.07	–
[1], 338.15 K	–	–	448.69	–
[1], 339.15 K	–	–	449.32	–
[1], 340.15 K	–	–	450.25	–
[1], 341.15 K	–	–	450.56	–
[1], 342.15 K	–	–	451.5	–
[1], 343.15 K	–	–	452.44	–
[2], 293.15 K	0.0388	1296.7	–	693.1
[2], 298.15 K	0.0543	1292.9	–	485.8
[2], 303.15 K	0.074	1288.7	–	350.9
[2], 308.15 K	0.0992	1285.1	–	255.4
[2], 313.15 K	0.1301	1281	–	189.4
[2], 318.15 K	0.168	1277	–	147.5
[2], 323.15 K	0.212	1273	–	114.7
[2], 328.15 K	0.264	1269.1	–	91.1
[2], 333.15 K	0.322	1265.2	–	73.5
[2], 338.15 K	0.391	1261.2	–	60
[2], 343.15 K	0.465	1257	–	49.6
